From patent EP2949653A1, “ISOXAZOLE DERIVATIVES AS LEUKOTRIENE BIOSYNTHESIS INHIBITORS” (Banoglu, Erden, priority 2014, dated 2015) come the findings set out here.

For test [1], the system named is 5-LO mediated product synthesis. The test can be described thus: 5-LO mediated product synthesis in neutrophils stimulated with LPS plus fMLP. In kind it is cell-based. The following applies: Homo sapiens, Neutrophil.
Test [2] concerns 5-LO mediated product formation. The test can be described thus: 5-LO mediated product formation in intact monocytes stimulated with A23187. In kind it is cell-based. Conditions: Homo sapiens, Monocyte; A23187 (2.5 µM), absence of exogenous AA (Figure 3). The method, then:
Cell based and cell-free assays carried out in biological studies, immunofluorescence microscopy analysis and zymosan-induced peritonitis in mice are performed as described hereinabove (Pegola, C. and et al., British J. Pharmacology, 2014, D01:10.1111/bph.12625). In the cell based assays (intact neutrophils or monocytes), 5-LO mediated product formation is started, after pre-incubation with test compounds (or control DMSO) for 15 min. at 37 °C, with addition of Ca-ionophore A23187 (2.5 µM) to the fresh 5 x 10^6 neutrophils or monocytes suspended in 1 ml of PGC buffer (phosphate buffered saline (PBS) solution containing 1 mg ml^-1 glucose and 1mM CaCl2, pH 7.4). After the incubation for 10 min. at 37 °C, the reaction is ended with addition of 1 ml of methanol, and 30 µL 1 N HCl, 200 ng prostaglandin B1 and 500 µL PBS are added to the mixture. […] Resulting 5-LO mediated products are extracted and analysed by the known method of high pressure liquid chromatography (HPLC) (Pergola, C. Proc Natl. Acad. Sci. U.S.A. 2008, 105, 19881). 5-LO mediated product formation (LTB4 and all trans isomers, and 5 (S)-hydro(pero)xy-6-trans-8, 11, 14-cis-eicosatetraenoic acid, 5-H(p)ETE) is expressed as ng per 10^6 cell. Cysteinyl-LTs have not been analyzed because that the amount of C4, D4 and E4 and LTB4 oxidation products are below the detection limit. […]

A further test has as its target T1, 12-LO (Homo sapiens, UniProt P18054).
T1 construct: 12-LO or 15-LO, up to 10 µM in A23187-stimulated neutrophils; endogenous in cells; host or cells: A23187-stimulated neutrophils
T1 sequence (P18054 1-663): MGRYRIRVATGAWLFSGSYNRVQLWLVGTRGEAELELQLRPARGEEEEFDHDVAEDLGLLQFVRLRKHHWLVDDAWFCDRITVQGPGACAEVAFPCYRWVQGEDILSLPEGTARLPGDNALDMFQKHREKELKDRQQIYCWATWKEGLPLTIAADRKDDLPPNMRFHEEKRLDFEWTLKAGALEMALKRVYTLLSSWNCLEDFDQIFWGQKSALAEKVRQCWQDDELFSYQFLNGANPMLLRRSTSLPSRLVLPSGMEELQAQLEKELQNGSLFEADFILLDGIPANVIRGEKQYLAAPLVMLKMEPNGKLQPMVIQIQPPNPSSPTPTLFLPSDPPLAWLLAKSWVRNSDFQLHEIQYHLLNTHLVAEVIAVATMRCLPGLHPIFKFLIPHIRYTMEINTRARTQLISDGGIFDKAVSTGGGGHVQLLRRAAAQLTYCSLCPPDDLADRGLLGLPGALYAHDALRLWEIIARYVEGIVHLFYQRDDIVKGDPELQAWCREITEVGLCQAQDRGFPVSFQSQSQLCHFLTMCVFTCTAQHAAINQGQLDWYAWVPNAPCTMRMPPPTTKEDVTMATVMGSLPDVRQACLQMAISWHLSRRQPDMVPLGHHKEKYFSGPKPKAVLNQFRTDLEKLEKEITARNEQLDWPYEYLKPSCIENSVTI
The test can be described thus: 12-LO inhibition in A23187-stimulated neutrophils. In kind it is cell-based. Conditions: up to 10 µM in A23187-stimulated neutrophils.

Test [3] has as its system 5-LO mediated product formation. Put plainly: 5-LO mediated product formation in intact neutrophils stimulated with A23187 (cell-based). On the set-up: species or system human. The following applies: for IC50: Neutrophil. Here is the method: Cell based and cell-free assays carried out in biological studies, immunofluorescence microscopy analysis and zymosan-induced peritonitis in mice are performed as described hereinabove (Pegola, C. and et al., British J. Pharmacology, 2014, D01:10.1111/bph.12625). In the cell based assays (intact neutrophils or monocytes), 5-LO mediated product formation is started, after pre-incubation with test compounds (or control DMSO) for 15 min. at 37 °C, with addition of Ca-ionophore A23187 (2.5 µM) to the fresh 5 x 10^6 neutrophils or monocytes suspended in 1 ml of PGC buffer (phosphate buffered saline (PBS) solution containing 1 mg ml^-1 glucose and 1mM CaCl2, pH 7.4). After the incubation for 10 min. at 37 °C, the reaction is ended with addition of 1 ml of methanol, and 30 µL 1 N HCl, 200 ng prostaglandin B1 and 500 µL PBS are added to the mixture. In cell-free assays (isolated 5-LO and cell homogenates), human recombinant 5-LO protein or 40,000g supernatant is added to 1 ml of 5-LO reaction mixture (PBS, pH 7.4, 1 mM EDTA, 1 mM ATP), and then incubated with test compounds (or control DMSO) for 10 min. at 4°C, heated to 37 °C and 2 mM CaCl2 as well as AA at certain concentrations are added. The reaction is ended as described for the cell-based assays. Resulting 5-LO mediated products are extracted and analysed by the known method of high pressure liquid chromatography (HPLC) (Pergola, C. Proc Natl. Acad. Sci. U.S.A. 2008, 105, 19881). 5-LO mediated product formation (LTB4 and all trans isomers, and 5 (S)-hydro(pero)xy-6-trans-8, 11, 14-cis-eicosatetraenoic acid, 5-H(p)ETE) is expressed as ng per 10^6 cell. Cysteinyl-LTs have not been analyzed because that the amount of C4, D4 and E4 and LTB4 oxidation products are below the detection limit.
Compounds were tested in intact human neutrophils stimulated with 2.5 µM A23187 under cell based conditions and on purified 5-LO under cell free conditions. ^aData are given as remaining activity as a percentage of control (100%) at 10 µM or 1 µM inhibitor concentrations (means ± SE, n = 3-6).
Compound 9hj inhibited 5-LO mediated product formation with IC50 of 60 nM in human neutrophils. Neutrophils are stimulated with Ca-ionophore A23187 (2.5 µM), without the addition of exogenous arachidonic acid (AA), after pre-incubation with 9hj or vehicle (0.1 % DMSO). 100% controls correspond to 275.7 ng mL^-1 of 5-LO mediated products (Figure 1).
100% controls correspond to 328.97 ng mL^-1 of 5-LO mediated products.

Test [4] concerns the target T2, microsomal prostaglandin E synthase-1 (mPGES-1) (Homo sapiens, UniProt O14684).
T2 sequence (O14684 1-152): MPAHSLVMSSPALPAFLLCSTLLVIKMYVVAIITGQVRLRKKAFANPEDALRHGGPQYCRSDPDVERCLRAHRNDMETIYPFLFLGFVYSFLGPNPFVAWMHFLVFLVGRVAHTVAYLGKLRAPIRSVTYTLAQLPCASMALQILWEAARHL
Put plainly: mPGES-1 inhibition. In kind it is biochemical. The method, then:
Compound 9hj inhibited microsomal prostaglandin E synthase-1 (mPGES-1) with IC50 of 5 µM.

As for `O=C(O)c1noc(-c2ccc(OCc3ccc4ccccc4n3)cc2)c1-c1ccc(Cl)cc1` [Compound 9hj, 4-(4-Chlorophenyl)-5-(4-(quinolin-2-ylmethoxy)phenyl)isoxazole-3-carboxylic acid], the IC50 (in general, the midpoint of a concentration-inhibition curve) is 10 nM in test [1]; 5 nM in test [2]; 0.06 µM in test [3] (Homo sapiens, A23187 (2.5 µM), without exogenous AA, vehicle 0.1 % DMSO (Figure 1), read-out: IC50 5-LO mediated product formation in human neutrophils); 0.24 µM in test [3] (intact human neutrophils stimulated with 2.5 µM A23187, mean ± SE, n = 3-4, read-out: Inhibition of purified 5-LO activity IC50 (µM) cell based); 5000 nM in test [4]. On 12-LO, the “inhibition of 12-LO” value is “did not inhibit”. In addition, in test [3] (PMNL, remaining activity at 1 µM inhibitor, human neutrophils, 2.5 µM A23187, means ± SE, n = 3-6, read-out: 5-LO mediated product formation in intact neutrophils (PMNL) (% of control) at 1 µM), the activity at 1 µM came out at 12.1 ± 5.26%. The activity at 10 µM in test [3] (PMNL, remaining activity at 10 µM inhibitor, human neutrophils, 2.5 µM A23187, means ± SE, n = 3-6, read-out: 5-LO mediated product formation in intact neutrophils (PMNL) (% of control) at 10 µM) worked out at 2.73 ± 1.41%.
